Experimental findings from patent publication US8618095B2 (Rigel Pharmaceuticals, Inc., priority 2010, dated 2013) are described below.

For orientation: IC50 means the concentration that inhibits the measured activity by half.

In this assay the test system is Human mast cells (CHMC). Briefly: LD Tryptase release assay in CHMC (mast cell activation induced by FcγR cross-linking). The class given is cell-based. The following applies: Homo sapiens, Mast cell, anti-IgG stimulation, activity of tryptase released upon degranulation. On the procedure: Compounds were assayed for inhibition of mast cell activation induced by FcγR cross-linking by measuring the activity of tryptase released upon degranulation as follows:
Human mast cells were cultured and differentiated from […] progenitor cell as described in U.S. Patent Publication No. 2005-234049, incorporated herein by reference. For example, 65 μL of various concentrations of the compound to be assayed were prepared in MT (137 mM NaCl, 2.7 mM KCl, 1.8 mM CaCl2, 1.0 mM MgCl2, 5.6 mM Glucose, 20 mM Hepes (pH 7.4), 0.1% Bovine Serum Albumin, (Sigma A4503)) containing 2% MeOH and 1% DMSO, or control buffer were added to duplicate 96-well V-bottom plates. Pelleted and re-suspended (in warm MT) CHMC cells (65 μL) were added to each 96-well plate, mixed and incubated for 1 hour at 37° C. 25 μl of 6× anti-IgG Rabbit anti-human IgG, Affinity purified (Bethyl Laboratories Cat No. A80-105A3) final concentration 1 μg/mL, was added to the test wells. MT (25 μL) was added to control wells. After a 60-minute incubation at 37° C., cells and cell debris were pelleted by centrifugation at 1000 rpm for 10 min and tryptase and leukotriene C4 levels were measured.
To measure tryptase levels, 25 μL of supernatant from each well was transferred to a fresh 96-well black bottom plate, to which 100 μL of fresh tryptase substrate solution [(Z-Ala-Lys-Arg-AMC2TFA; Enzyme Systems Products, #AMC-246)] 1:2000 in tryptase assay buffer [0.1 M Hepes (pH 7.5), 10% w/v Glycerol, 10 μM Heparin (Sigma H-4898) 0.01% NaN3] was added. After 30 minute incubation at room temperature, the optical density of the plates is measured at 355 nm/460 nm on a spectrophotometric plate reader. Table 1 provides the IC50 values.
Compounds of the disclosure were assayed for their ability to inhibit mast cell activation induced by FcγR cross-linking by measuring the activity of tryptase released upon degranulation. The IC50 values for the LD Tryptase assay are presented in Table 2, in which “0” is >100 μM; “A” is 1-100 μM; “B” is 0.5-1 μM; “C” is 0.1-0.5 μM; and “D” is less than 0.1 μM: […]
As for `Cc1ccc(Nc2ncc(F)c(Nc3ccc4c(n3)NC(=O)C(C)(C)O4)n2)cn1` [Compound 76, N4-(2,2-dimethyl-3,4-dihydro-3-oxo-2H-pyrido[3,2-b][1,4]oxazin-6-yl)-5-fluoro-N2-[6-methylpyridin-3-yl]-2,4-pyrimidinediamine], the IC50 was in the range of 100 to 500 nM. Next, `CC1(C)Oc2ccc(Nc3nc(Nc4ccc(N5CCC(N6CCOCC6)C5)nc4)ncc3F)nc2NC1=O` (stereo not drawn) [Compound 67, N4-(2,2-dimethyl-3,4-dihydro-3-oxo-2H-pyrido[3,2-b][1,4]oxazin-6-yl)-5-fluoro-N2-[6-(3-morpholinopyrrolidin-1-yl)pyridin-3-yl]-2,4-pyrimidinediamine]: 100 to 500 nM. As to `CC1(C)Oc2ccc(Nc3nc(Nc4ccc(N5CCO[C@@H](CO)C5)cc4)ncc3F)nc2NC1=O` [Compound 128, N4-(2,2-dimethyl-3,4-dihydro-3-oxo-2H-pyrido[3,2-b][1,4]oxazin-6-yl)-5-fluoro-N2-[4-((2-hydroxymethyl)morpholino)phenyl]-2,4-pyrimidinediamine], the IC50 was less than 100 nM. Regarding `Cc1cc(Nc2ncc(F)c(Nc3ccc4c(n3)NC(=O)C(C)(C)O4)n2)ccc1N1CCOCC1` [Compound 23, N4-(2,2-dimethyl-3,4-dihydro-3-oxo-2H-pyrido[3,2-b][1,4]oxazin-6-yl)-5-fluoro-N2-[3-methyl-4-morpholinophenyl]-2,4-pyrimidinediamine], the IC50 is less than 100 nM.

For `CC1(C)Oc2ccc(Nc3nc(Nc4ccc(N5CCOC5=O)cc4)ncc3F)nc2NC1=O` [Compound 91, N4-(2,2-dimethyl-3,4-dihydro-3-oxo-2H-pyrido[3,2-b][1,4]oxazin-6-yl)-5-fluoro-N2-[4-(2-oxooxazolidin-3-yl)phenyl]-2,4-pyrimidinediamine], the IC50 is less than 100 nM.

Turning to `CC1(C)Oc2ccc(Nc3nc(Nc4ccc(N5CCC(N6CCOCC6)CC5)cc4)ncc3F)nc2NC1=O` [Compound 87, N4-(2,2-dimethyl-3,4-dihydro-3-oxo-2H-pyrido[3,2-b][1,4]oxazin-6-yl)-5-fluoro-N2-[4-(4-morpholinopiperidin-1-yl)phenyl]-2,4-pyrimidinediamine], the IC50 lay within 100 to 500 nM. As for `CC1(C)Oc2ccc(Nc3nc(Nc4ccc(N5CCOCC5)c(F)c4)ncc3F)nc2NC1=O` [Compound 26, N4-(2,2-dimethyl-3,4-dihydro-3-oxo-2H-pyrido[3,2-b][1,4]oxazin-6-yl)-5-fluoro-N2-[3-fluoro-4-morpholinophenyl]-2,4-pyrimidinediamine], the figure is less than 100 nM; as for `CC1(C)Oc2ccc(Nc3nc(Nc4ccc(N5CCCCC5)cc4)ncc3F)nc2NC1=O` [Compound 78, N4-(2,2-dimethyl-3,4-dihydro-3-oxo-2H-pyrido[3,2-b][1,4]oxazin-6-yl)-5-fluoro-N2-[4-(piperidin-1-yl)phenyl]-2,4-pyrimidinediamine], 1000 to 100000 nM. On to `CN(C)c1ccc(Nc2ncc(F)c(Nc3ccc4c(n3)NC(=O)C(C)(C)O4)n2)cn1` [Compound 147, N4-(2,2-dimethyl-3,4-dihydro-3-oxo-2H-pyrido[3,2-b][1,4]oxazin-6-yl)-5-fluoro-N2-[6-(dimethylamino)pyridin-3-yl]-2,4-pyrimidinediamine], for which the IC50 fell in the range of 100 to 500 nM.

For `CN(C)C[C@@H]1CN(c2ccc(Nc3ncc(F)c(Nc4ccc5c(n4)NC(=O)C(C)(C)O5)n3)cc2)CCO1` [Compound 122], the IC50 was 100 to 500 nM. Next, `CC1(C)Oc2ccc(Nc3nc(Nc4ccc(N5CC[C@H](CO)C5)nc4)ncc3F)nc2NC1=O` [Compound 71, N4-(2,2-dimethyl-3,4-dihydro-3-oxo-2H-pyrido[3,2-b][1,4]oxazin-6-yl)-5-fluoro-N2-[6-((3S)-3-(hydroxymethyl)pyrrolidin-1-yl)pyridin-3-yl]-2,4-pyrimidinediamine]: 100 to 500 nM; `CC(C)OC1CCN(c2ccc(Nc3ncc(F)c(Nc4ccc5c(n4)NC(=O)C(C)(C)O5)n3)cc2)CC1` [Compound 86, N4-(2,2-dimethyl-3,4-dihydro-3-oxo-2H-pyrido[3,2-b][1,4]oxazin-6-yl)-5-fluoro-N2-[4-(4-isopropoxypiperidin-1-yl)phenyl]-2,4-pyrimidinediamine]: 1000 to 100000 nM.
